Reference: ChEMBL document CHEMBL1144633, “Affinity-based ranking of ligands for DPP-4 from mixtures” (Bioorg Med Chem Lett, 2007)

Target: Dipeptidyl peptidase 4 (Homo sapiens, UniProt P27487)
Test: Inhibition of DPP4

Dipeptidyl peptidase 4, sequence (P27487 whole entry): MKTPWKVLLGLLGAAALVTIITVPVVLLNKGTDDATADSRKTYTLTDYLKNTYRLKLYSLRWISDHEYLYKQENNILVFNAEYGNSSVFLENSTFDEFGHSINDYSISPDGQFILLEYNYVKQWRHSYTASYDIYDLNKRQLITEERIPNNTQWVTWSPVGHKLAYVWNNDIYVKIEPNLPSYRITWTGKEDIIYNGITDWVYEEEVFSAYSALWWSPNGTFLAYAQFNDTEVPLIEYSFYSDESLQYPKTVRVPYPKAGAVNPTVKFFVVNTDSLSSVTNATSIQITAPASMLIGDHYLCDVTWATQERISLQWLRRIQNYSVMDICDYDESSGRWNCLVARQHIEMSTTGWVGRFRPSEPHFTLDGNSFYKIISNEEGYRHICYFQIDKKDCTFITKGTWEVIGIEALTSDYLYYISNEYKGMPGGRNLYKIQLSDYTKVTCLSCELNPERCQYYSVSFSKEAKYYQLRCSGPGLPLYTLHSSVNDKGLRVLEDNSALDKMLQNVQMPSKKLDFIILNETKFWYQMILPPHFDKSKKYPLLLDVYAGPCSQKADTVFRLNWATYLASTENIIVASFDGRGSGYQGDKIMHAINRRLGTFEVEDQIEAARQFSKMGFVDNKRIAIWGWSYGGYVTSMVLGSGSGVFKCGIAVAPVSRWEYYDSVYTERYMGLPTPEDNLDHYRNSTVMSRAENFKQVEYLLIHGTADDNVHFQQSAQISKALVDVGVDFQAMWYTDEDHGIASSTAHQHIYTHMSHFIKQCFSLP

| Compound | IC50 |
| --- | --- |
| COc1cc(CNC(=O)[C@@H]2CCCN2C(=O)C[C@H](N)Cc2ccccc2F)ccc1O | 864 nM |
| N[C@@H](CC(=O)N1CCn2cc(C(F)(F)F)nc2C1c1ccc(F)cc1)Cc1ccc(F)c(F)c1 (stereo partly specified) | 1400 nM |
| C=COCC(=O)N1CCN(C(=O)C[C@H](N)Cc2ccccc2F)CC1 | 2210 nM |
| N[C@H](C(=O)N1CCC(F)(F)C1)[C@@H]1CCN(S(=O)(=O)c2ccc(OC(F)(F)F)cc2)C1 | 995 nM |
| N[C@@H](CC(=O)N1CCn2nccc21)Cc1cc(F)ccc1F | 1320 nM |
| N[C@@H](CC(=O)N1CCC[C@H]1C(=O)NCc1ccc(C(F)(F)F)cc1)Cc1ccccc1F | 731 nM |
| CC(C)[C@H](Oc1ccc(CNC(=O)[C@@H]2CCCN2C(=O)C[C@H](N)Cc2cc(F)c(F)c(F)c2F)cc1)C(=O)O | 8 nM |
| CSc1cc(F)c(C[C@@H](N)CC(=O)N2CCn3c(nnc3C(F)(F)F)C2)cc1F | 780 nM |
| N[C@@H](CC(=O)N1CCN(c2ccc(Cl)cc2)CC1)Cc1ccccc1F | 1250 nM |
| C=CCC(C(=O)N1CCn2c(nnc2C(F)(F)F)C1)[C@H](N)Cc1cc(F)c(F)cc1F (stereo partly specified) | 2000 nM |
| O=C([C@@H]1Cc2ccc(-c3cccc(-c4nnn[nH]4)c3)cc2CN1)N1CC[C@H](F)C1 | 310 nM |
